Laboratory results: PMC5007650, “Crystal structure of the two-subunit tRNA m^1A58 methyltransferase TRM6-TRM61 from Saccharomyces cerevisiae” (Scientific Reports, 2016)

Experiments:
Assay in all cases: isothermal titration calorimetry, single-site fit
Type in all cases: binding
[1] = biological target: T1, TRM6-TRM61 holoenzyme (Saccharomyces cerevisiae, UniProt P46959)
T1 construct: gene GCD14; full-length TRM6 (478 residues) and TRM61 co-expressed from pETDuet-TRM6-TRM61 in bacteria; Ni-NTA and gel filtration; with tRNA (adenine(58)-N(1))-methyltransferase non-catalytic subunit TRM6
T1 sequence (P46959 whole entry): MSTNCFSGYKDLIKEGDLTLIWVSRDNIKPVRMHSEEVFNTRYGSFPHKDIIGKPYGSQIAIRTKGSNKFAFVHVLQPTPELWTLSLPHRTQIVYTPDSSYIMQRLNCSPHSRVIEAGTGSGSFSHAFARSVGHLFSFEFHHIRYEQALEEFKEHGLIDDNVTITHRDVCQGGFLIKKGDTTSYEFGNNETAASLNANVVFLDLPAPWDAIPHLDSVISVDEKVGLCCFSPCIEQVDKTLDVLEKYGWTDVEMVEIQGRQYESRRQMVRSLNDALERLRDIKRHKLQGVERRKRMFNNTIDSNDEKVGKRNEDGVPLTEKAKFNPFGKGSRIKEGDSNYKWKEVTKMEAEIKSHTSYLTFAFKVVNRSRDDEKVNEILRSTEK
T1 sequence (P41814 whole entry partner): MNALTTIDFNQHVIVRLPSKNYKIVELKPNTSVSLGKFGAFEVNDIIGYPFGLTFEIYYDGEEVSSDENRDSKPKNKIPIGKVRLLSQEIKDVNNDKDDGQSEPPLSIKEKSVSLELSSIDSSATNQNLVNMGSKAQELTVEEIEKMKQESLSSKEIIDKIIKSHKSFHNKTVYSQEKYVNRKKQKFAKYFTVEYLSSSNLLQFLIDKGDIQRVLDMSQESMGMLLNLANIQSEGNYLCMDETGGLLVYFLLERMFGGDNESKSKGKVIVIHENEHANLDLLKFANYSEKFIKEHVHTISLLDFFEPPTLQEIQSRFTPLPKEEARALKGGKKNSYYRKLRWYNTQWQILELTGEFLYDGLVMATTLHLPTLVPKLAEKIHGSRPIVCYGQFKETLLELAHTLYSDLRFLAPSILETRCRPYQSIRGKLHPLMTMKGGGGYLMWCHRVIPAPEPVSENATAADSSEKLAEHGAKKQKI

[2] = biological target: T2, TRM6-TRM61 holoenzyme (Saccharomyces cerevisiae, UniProt P46959, F124A)
T2 construct: gene GCD14; full-length TRM6 (478 residues) and TRM61 co-expressed from pETDuet-TRM6-TRM61 in bacteria; Ni-NTA and gel filtration; with tRNA (adenine(58)-N(1))-methyltransferase non-catalytic subunit TRM6
T2 sequence (P46959 whole entry F124A): as the sequence (P46959 whole entry) above, with F124A counted along it
T2 sequence (P41814 whole entry partner): as the sequence (P41814 whole entry partner) above
Source text: (§1) isothermal titration calorimetry, single-site fit on TRM6-TRM61 holoenzyme

[3] = biological target: T3, TRM6-TRM61 holoenzyme (Saccharomyces cerevisiae, UniProt P46959, F140A)
T3 construct: gene GCD14; full-length TRM6 (478 residues) and TRM61 co-expressed from pETDuet-TRM6-TRM61 in bacteria; Ni-NTA and gel filtration; with tRNA (adenine(58)-N(1))-methyltransferase non-catalytic subunit TRM6
T3 sequence (P46959 whole entry F140A): as the sequence (P46959 whole entry) above, with F140A counted along it
T3 sequence (P41814 whole entry partner): as the sequence (P41814 whole entry partner) above
Source text: as §1

[4] = biological target: T4, TRM6-TRM61 holoenzyme (Saccharomyces cerevisiae, UniProt P46959, V169A)
T4 construct: gene GCD14; full-length TRM6 (478 residues) and TRM61 co-expressed from pETDuet-TRM6-TRM61 in bacteria; Ni-NTA and gel filtration; with tRNA (adenine(58)-N(1))-methyltransferase non-catalytic subunit TRM6
T4 sequence (P46959 whole entry V169A): as the sequence (P46959 whole entry) above, with V169A counted along it
T4 sequence (P41814 whole entry partner): as the sequence (P41814 whole entry partner) above
Source text: as §1

- Kd [1]: 44.3 ± 4.55 µM
- Kd [2]: 317 ± 34.7 µM
- Kd [3]: 787 ± 64.5 µM
- Kd [4]: 409 ± 74.7 µM
Compound: C[S+](CC[C@H](N)C(=O)O)C[C@H]1O[C@@H](n2cnc3c(N)ncnc32)[C@H](O)[C@@H]1O (stereo partly shown) [SAM]
